This note sets out measurements from patent US20020156236A1, “Binding sites for phosphotyrosine binding domains” (priority 1995, published 2002).

Molecules are shown by their SMILES. pIC50: −log10 of the molar value. Where a SMILES comes first, the peptide text is derived from it. Some results are limits rather than exact numbers.

The experiment deals with T1, PTB domain/c-erbB2 binding (GST-PTB domain of SHC; c-erbB2 from SKBR3 lysate) (Homo sapiens, UniProt P29353).
T1 construct: GST-PTB domain fusion proteins were expressed from recombinant baculovirus in sf9 cells; made in house; host or cells: Sf9 cells (recombinant baculovirus) for GST-PTB; c-erbB2 endogenous in SKBR3 cell lysate
T1 sequence (P29353 156-341): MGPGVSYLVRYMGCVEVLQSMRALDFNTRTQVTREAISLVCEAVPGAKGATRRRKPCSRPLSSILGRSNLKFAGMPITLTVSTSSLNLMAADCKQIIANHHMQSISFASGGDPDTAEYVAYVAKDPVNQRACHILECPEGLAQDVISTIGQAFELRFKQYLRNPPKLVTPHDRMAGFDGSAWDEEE
Nature of the experiment: biochemical. The conditions noted are these: Inhibition (relative inhibition scale of IC50).

Compound `CC(C)C[C@H](NC(=O)[C@H](CC(N)=O)NC(=O)[C@H](CC(=O)O)NC(=O)[C@H](Cc1ccccc1)NC(=O)[C@H](C)NC(=O)[C@@H]1CCCN1C(=O)[C@H](CO)NC(=O)[C@H](Cc1ccccc1)NC(=O)[C@H](C)NC(=O)[C@@H]1CCCN1)C(=O)N[C@@H](Cc1ccc(O)cc1)C(=O)N[C@@H](Cc1ccc(OP(=O)(O)O)cc1)C(=O)N[C@@H](Cc1ccccc1)C(=O)N[C@@H](CC(=O)O)C(=O)N[C@@H](CCC(N)=O)C(=O)N[C@@H](CC(N)=O)C(=O)N[C@@H](CO)C(=O)N[C@@H](CO)C(=O)N[C@@H](CCC(=O)O)C(=O)N[C@@H](CCC(N)=O)C(=O)NCC(=O)O` [PAFSPAFDNLY (pY) FDQNSSEQG, PAFSPAFDNLY(pY)FDQNSSEQG] (HELM PEPTIDE1{P.A.F.S.P.A.F.D.N.L.Y.[O=C([C@H](Cc1ccc(OP(=O)(O)O)cc1)N[*:1])[*:2]].F.D.Q.N.S.S.E.Q.G}$$$$V2.0) gave a pIC50 of 5.30 to 6.30.
In turn, `CC(C)C[C@H](NC(=O)[C@H](CC(N)=O)NC(=O)[C@H](CC(=O)O)NC(=O)[C@H](Cc1ccccc1)NC(=O)[C@H](C)NC(=O)[C@@H]1CCCN1C(=O)[C@H](CO)NC(=O)[C@H](Cc1ccccc1)NC(=O)[C@H](C)NC(=O)[C@@H]1CCCN1)C(=O)N[C@@H](Cc1ccc(O)cc1)C(=O)N[C@@H](Cc1ccc(OP(=O)(O)O)cc1)C(=O)N[C@@H](Cc1c[nH]c2ccccc12)C(=O)N[C@@H](CC(=O)O)C(=O)N[C@@H](CC(=O)O)C(=O)N[C@@H](CC(N)=O)C(=O)N[C@@H](CO)C(=O)N[C@@H](CO)C(=O)N[C@@H](CCC(=O)O)C(=O)N[C@@H](CCC(N)=O)C(=O)NCC(=O)O` [PAFSPAFDNLY (pY) WDDNSSEQG, PAFSPAFDNLY(pY)WDDNSSEQG] (HELM PEPTIDE1{P.A.F.S.P.A.F.D.N.L.Y.[O=C([C@H](Cc1ccc(OP(=O)(O)O)cc1)N[*:1])[*:2]].W.D.D.N.S.S.E.Q.G}$$$$V2.0) gave a pIC50 of 5.30 to 6.30.
To `CC(C)C[C@H](NC(=O)[C@H](CC(N)=O)NC(=O)[C@H](CC(=O)O)NC(=O)[C@H](Cc1ccccc1)NC(=O)[C@H](C)NC(=O)[C@@H]1CCCN1C(=O)[C@H](CO)NC(=O)[C@H](Cc1ccccc1)NC(=O)[C@H](C)NC(=O)[C@@H]1CCCN1)C(=O)N[C@@H](Cc1ccc(O)cc1)C(=O)N[C@@H](Cc1ccc(OP(=O)(O)O)cc1)C(=O)N[C@@H](C)C(=O)N[C@@H](CC(=O)O)C(=O)N[C@@H](CCC(N)=O)C(=O)N[C@@H](CC(N)=O)C(=O)N[C@@H](CO)C(=O)N[C@@H](CO)C(=O)N[C@@H](CCC(=O)O)C(=O)N[C@@H](CCC(N)=O)C(=O)NCC(=O)O` [PAFSPAFDNLY (pY) ADQNSSEQG] (HELM PEPTIDE1{P.A.F.S.P.A.F.D.N.L.Y.[O=C([C@H](Cc1ccc(OP(=O)(O)O)cc1)N[*:1])[*:2]].A.D.Q.N.S.S.E.Q.G}$$$$V2.0) belongs < 4.30; to `C[C@H](NC(=O)[C@@H]1CCCN1)C(=O)N[C@@H](Cc1ccccc1)C(=O)N[C@@H](CO)C(=O)N1CCC[C@H]1C(=O)N[C@@H](C)C(=O)N[C@@H](Cc1ccccc1)C(=O)N[C@@H](CC(=O)O)C(=O)N[C@@H](CC(N)=O)C(=O)N[C@@H](C)C(=O)N[C@@H](Cc1ccc(O)cc1)C(=O)N[C@@H](Cc1ccc(OP(=O)(O)O)cc1)C(=O)N[C@@H](Cc1c[nH]c2ccccc12)C(=O)N[C@@H](CC(=O)O)C(=O)N[C@@H](CCC(N)=O)C(=O)N[C@@H](CC(N)=O)C(=O)N[C@@H](CO)C(=O)N[C@@H](CO)C(=O)N[C@@H](CCC(=O)O)C(=O)N[C@@H](CCC(N)=O)C(=O)NCC(=O)O` [PAFSPAFDNAY (pY) WDQNSSEQG, PAFSPAFDNAY(pY)WDQNSSEQG] (HELM PEPTIDE1{P.A.F.S.P.A.F.D.N.A.Y.[O=C([C@H](Cc1ccc(OP(=O)(O)O)cc1)N[*:1])[*:2]].W.D.Q.N.S.S.E.Q.G}$$$$V2.0), 5.30 to 6.30; to `CC(C)C[C@H](NC(=O)[C@H](CCC(N)=O)NC(=O)[C@H](CC(=O)O)NC(=O)[C@H](Cc1ccccc1)NC(=O)[C@H](C)NC(=O)[C@@H]1CCCN1C(=O)[C@H](CO)NC(=O)[C@H](Cc1ccccc1)NC(=O)[C@H](C)NC(=O)[C@@H]1CCCN1)C(=O)N[C@@H](Cc1ccc(O)cc1)C(=O)N[C@@H](Cc1ccc(OP(=O)(O)O)cc1)C(=O)N[C@@H](Cc1c[nH]c2ccccc12)C(=O)N[C@@H](CC(=O)O)C(=O)N[C@@H](CCC(N)=O)C(=O)N[C@@H](CC(N)=O)C(=O)N[C@@H](CO)C(=O)N[C@@H](CO)C(=O)N[C@@H](CCC(=O)O)C(=O)N[C@@H](CCC(N)=O)C(=O)NCC(=O)O` [PAFSPAFDQLY (pY) WDQNSSEQG] (HELM PEPTIDE1{P.A.F.S.P.A.F.D.Q.L.Y.[O=C([C@H](Cc1ccc(OP(=O)(O)O)cc1)N[*:1])[*:2]].W.D.Q.N.S.S.E.Q.G}$$$$V2.0), < 4.30.
To `CC(C)C[C@H](NC(=O)[C@H](CC(N)=O)NC(=O)[C@H](CC(=O)O)NC(=O)[C@H](Cc1ccccc1)NC(=O)[C@H](C)NC(=O)[C@@H]1CCCN1C(=O)[C@H](CO)NC(=O)[C@H](Cc1ccccc1)NC(=O)[C@H](C)NC(=O)[C@@H]1CCCN1)C(=O)N[C@@H](Cc1ccc(O)cc1)C(=O)N[C@@H](Cc1ccc(OP(=O)(O)O)cc1)C(=O)N[C@@H](Cc1c[nH]c2ccccc12)C(=O)N[C@@H](CC(=O)O)C(=O)N[C@@H](CCC(N)=O)C(=O)N[C@@H](CC(N)=O)C(=O)N[C@@H](C)C(=O)N[C@@H](CO)C(=O)N[C@@H](CCC(=O)O)C(=O)N[C@@H](CCC(N)=O)C(=O)NCC(=O)O` [PAFSPAFDNLY (pY) WDQNASEQG, PAFSPAFDNLY(pY)WDQNASEQG] (HELM PEPTIDE1{P.A.F.S.P.A.F.D.N.L.Y.[O=C([C@H](Cc1ccc(OP(=O)(O)O)cc1)N[*:1])[*:2]].W.D.Q.N.A.S.E.Q.G}$$$$V2.0) belongs 5.30 to 6.30; to `CC(C)C[C@H](NC(=O)[C@H](CC(N)=O)NC(=O)[C@H](CC(=O)O)NC(=O)[C@H](C)NC(=O)[C@H](C)NC(=O)[C@@H]1CCCN1C(=O)[C@H](CO)NC(=O)[C@H](Cc1ccccc1)NC(=O)[C@H](C)NC(=O)[C@@H]1CCCN1)C(=O)N[C@@H](Cc1ccc(O)cc1)C(=O)N[C@@H](Cc1ccc(OP(=O)(O)O)cc1)C(=O)N[C@@H](Cc1c[nH]c2ccccc12)C(=O)N[C@@H](CC(=O)O)C(=O)N[C@@H](CCC(N)=O)C(=O)N[C@@H](CC(N)=O)C(=O)N[C@@H](CO)C(=O)N[C@@H](CO)C(=O)N[C@@H](CCC(=O)O)C(=O)N[C@@H](CCC(N)=O)C(=O)NCC(=O)O` [PAFSPAADNLY (pY) WDQNSSEQG, PAFSPAADNLY(pY)WDQNSSEQG] (HELM PEPTIDE1{P.A.F.S.P.A.A.D.N.L.Y.[O=C([C@H](Cc1ccc(OP(=O)(O)O)cc1)N[*:1])[*:2]].W.D.Q.N.S.S.E.Q.G}$$$$V2.0), 5.30 to 6.30; to `CC(C)C[C@H](NC(=O)[C@H](CC(N)=O)NC(=O)[C@H](CC(=O)O)NC(=O)[C@H](Cc1ccccc1)NC(=O)[C@H](C)NC(=O)[C@@H]1CCCN1C(=O)[C@H](CO)NC(=O)[C@H](Cc1ccccc1)NC(=O)[C@H](C)NC(=O)[C@@H]1CCCN1)C(=O)N[C@@H](C)C(=O)N[C@@H](Cc1ccc(O)cc1)C(=O)N[C@@H](Cc1ccc(OP(=O)(O)O)cc1)C(=O)N[C@@H](Cc1c[nH]c2ccccc12)C(=O)N[C@@H](CC(=O)O)C(=O)N[C@@H](CCC(N)=O)C(=O)N[C@@H](CC(N)=O)C(=O)N[C@@H](CO)C(=O)N[C@@H](CO)C(=O)N[C@@H](CCC(=O)O)C(=O)N[C@@H](CCC(N)=O)C(=O)NCC(=O)O` [PAFSPAFDNLAY (pY) WDQNSSEQG] (HELM PEPTIDE1{P.A.F.S.P.A.F.D.N.L.A.Y.[O=C([C@H](Cc1ccc(OP(=O)(O)O)cc1)N[*:1])[*:2]].W.D.Q.N.S.S.E.Q.G}$$$$V2.0), 5.30 to 6.30.
With `CC(C)C[C@H](NC(=O)[C@H](CC(N)=O)NC(=O)[C@H](CC(=O)O)NC(=O)[C@H](Cc1ccccc1)NC(=O)[C@H](C)NC(=O)[C@@H]1CCCN1C(=O)[C@H](CO)NC(=O)[C@H](Cc1ccccc1)NC(=O)[C@H](C)NC(=O)[C@@H]1CCCN1)C(=O)N[C@@H](Cc1ccc(O)cc1)C(=O)N[C@@H](Cc1ccc(OP(=O)(O)O)cc1)C(=O)N[C@@H](Cc1c[nH]c2ccccc12)C(=O)N[C@@H](C)C(=O)N[C@@H](CCC(N)=O)C(=O)N[C@@H](CC(N)=O)C(=O)N[C@@H](CO)C(=O)N[C@@H](CO)C(=O)N[C@@H](CCC(=O)O)C(=O)N[C@@H](CCC(N)=O)C(=O)NCC(=O)O` [PAFSPAFDNLY (pY) WAQNSSEQG, PAFSPAFDNLY(pY)WAQNSSEQG] (HELM PEPTIDE1{P.A.F.S.P.A.F.D.N.L.Y.[O=C([C@H](Cc1ccc(OP(=O)(O)O)cc1)N[*:1])[*:2]].W.A.Q.N.S.S.E.Q.G}$$$$V2.0) the figure was 6.30 to 7.30.
Consider `CC(C)C[C@H](NC(=O)[C@H](CC(N)=O)NC(=O)[C@H](CC(=O)O)NC(=O)[C@H](Cc1ccccc1)NC(=O)[C@H](C)NC(=O)[C@@H]1CCCN1C(=O)[C@H](CO)NC(=O)[C@H](Cc1ccccc1)NC(=O)[C@H](C)NC(=O)[C@@H]1CCCN1)C(=O)N[C@@H](Cc1ccc(O)cc1)C(=O)N[C@@H](Cc1ccc(OP(=O)(O)O)cc1)C(=O)N[C@@H](Cc1c[nH]c2ccccc12)C(=O)N[C@@H](CC(=O)O)C(=O)N[C@@H](CCC(N)=O)C(=O)N[C@@H](C)C(=O)N[C@@H](CO)C(=O)N[C@@H](CO)C(=O)N[C@@H](CCC(=O)O)C(=O)N[C@@H](CCC(N)=O)C(=O)NCC(=O)O` [PAFSPAFDNLY (pY) WDQASSEQG, PAFSPAFDNLY(pY)WDQASSEQG] (HELM PEPTIDE1{P.A.F.S.P.A.F.D.N.L.Y.[O=C([C@H](Cc1ccc(OP(=O)(O)O)cc1)N[*:1])[*:2]].W.D.Q.A.S.S.E.Q.G}$$$$V2.0), for which the pIC50 was 5.30 to 6.30.
